Paper PMC2984425, “Safety and pharmacokinetics of novel selective vascular endothelial growth factor receptor-2 inhibitor YN968D1 in patients with advanced malignancies” (BMC Cancer, 2010)

System: patients with advanced solid tumors
Assay: Treatment-related adverse events graded by NCI-CTC v3.0
Format: in vivo, human
Method: Medical records and laboratory tests were obtained during screening. Physical examination, routine laboratory evaluations, and performance status were assessed at baseline and at specified time points throughout the trial. AEs and concomitant medications were recorded at the end of each cycle. The safety evaluation period extended through 30 days from the last dose of study drug or through recovery to grade 1 or better from all acute toxicities associated with drug administration. Toxicity was evaluated and graded according to the NCI-CTC for Adverse Events, version 3.0.

Compound: N#CC1(c2ccc(NC(=O)c3cccnc3NCc3ccncc3)cc2)CCCC1 [apatinib]
- Hoarseness grade 1-2, No. (850 mg cohort): 1
- Hyperbilirubinemia grade 1-2, % (850 mg cohort): 23.1%
- Hyperbilirubinemia grade 1-2, No. (850 mg cohort): 3
- Hypertension grade 1-2, % (850 mg cohort): 69.2%
- Hypertension grade 1-2, No. (850 mg cohort): 9
- Infection grade 1-2, % (850 mg cohort): 23.1%
- Infection grade 1-2, No. (850 mg cohort): 3
- Mucosal ulcers grade 1-2, % (850 mg cohort): 15.4%
- Mucosal ulcers grade 1-2, No. (850 mg cohort): 2
- Neutropenia grade 1-2, % (850 mg cohort): 30.8%
- Neutropenia grade 1-2, No. (850 mg cohort): 4
- Neutropenia grade 3-4, % (850 mg cohort): 15.4%
- Neutropenia grade 3-4, No. (850 mg cohort): 2
- Pain grade 1-2, % (850 mg cohort): 23.1%
- Pain grade 1-2, No. (850 mg cohort): 3
- Proteinuria grade 1-2, % (850 mg cohort): 38.5%
- Proteinuria grade 1-2, No. (850 mg cohort): 5
- Proteinuria grade 3-4, % (850 mg cohort): 7.7%
- Proteinuria grade 3-4, No. (850 mg cohort): 1
- Rash grade 1-2, % (850 mg cohort): 7.7%
- Rash grade 1-2, No. (850 mg cohort): 1
- Thrombocytopenia grade 1-2, % (850 mg cohort): 15.4%
- Thrombocytopenia grade 1-2, No. (850 mg cohort): 2
- Thrombocytopenia grade 3-4, % (850 mg cohort): 7.7%
- Thrombocytopenia grade 3-4, No. (850 mg cohort): 1
- Transaminase Increased grade 1-2, % (850 mg cohort): 23.1%
- Transaminase Increased grade 1-2, No. (850 mg cohort): 3
- Transaminase Increased grade 3-4, % (850 mg cohort): 15.4%
- Transaminase Increased grade 3-4, No. (850 mg cohort): 2
- Vomiting grade 3-4, % (850 mg cohort): 7.7%
- Vomiting grade 3-4, No. (850 mg cohort): 1
- Anemia grade 3-4, % (1000 mg cohort): 33.3%
- Anemia grade 3-4, No. (1000 mg cohort): 1
- Anorexia grade 1-2, % (1000 mg cohort): 33.3%
- Anorexia grade 1-2, No. (1000 mg cohort): 1
- Fatigue grade 1-2, % (1000 mg cohort): 33.3%
- Fatigue grade 1-2, No. (1000 mg cohort): 1
- Fatigue grade 3-4, % (1000 mg cohort): 33.3%
- Fatigue grade 3-4, No. (1000 mg cohort): 1
- Hand-Food Syndrome grade 3-4, % (1000 mg cohort): 33.3%
- Hand-Food Syndrome grade 3-4, No. (1000 mg cohort): 1
- Hypertension grade 1-2, % (1000 mg cohort): 66.7%
- Hypertension grade 1-2, No. (1000 mg cohort): 2
- Hypertension grade 3-4, % (1000 mg cohort): 33.3%
- Hypertension grade 3-4, No. (1000 mg cohort): 1
- Infection grade 1-2, % (1000 mg cohort): 33.3%
- Infection grade 1-2, No. (1000 mg cohort): 1
- Mucosal ulcers grade 1-2, % (1000 mg cohort): 66.7%
- Mucosal ulcers grade 1-2, No. (1000 mg cohort): 2
- Neutropenia grade 1-2, % (1000 mg cohort): 100%
- Neutropenia grade 1-2, No. (1000 mg cohort): 3
- Pain grade 1-2, % (1000 mg cohort): 33.3%
- Pain grade 1-2, No. (1000 mg cohort): 1
- Thrombocytopenia grade 1-2, % (1000 mg cohort): 33.3%
- Thrombocytopenia grade 1-2, No. (1000 mg cohort): 1
- Transaminase Increased grade 1-2, % (1000 mg cohort): 33.3%
- Transaminase Increased grade 1-2, No. (1000 mg cohort): 1
- Transaminase Increased grade 3-4, % (1000 mg cohort): 33.3%
- Transaminase Increased grade 3-4, No. (1000 mg cohort): 1
- Albinism grade 1-2, % (Total, all cohorts): 2.2%
- Albinism grade 1-2, No. (Total, all cohorts): 1
- Anemia grade 1-2, % (Total, all cohorts): 15.2%
- Anemia grade 1-2, No. (Total, all cohorts): 7
- Anemia grade 3-4, % (Total, all cohorts): 4.3%
- Anemia grade 3-4, No. (Total, all cohorts): 2
- Anorexia grade 1-2, % (Total, all cohorts): 15.2%
- Anorexia grade 1-2, No. (Total, all cohorts): 7
- Diarrhea grade 1-2, % (Total, all cohorts): 13%
- Diarrhea grade 1-2, No. (Total, all cohorts): 6
- Dyspnea grade 1-2, % (Total, all cohorts): 2.2%
- Dyspnea grade 1-2, No. (Total, all cohorts): 1
- Fatigue grade 1-2, % (Total, all cohorts): 21.7%
- Fatigue grade 1-2, No. (Total, all cohorts): 10
- Fatigue grade 3-4, % (Total, all cohorts): 4.3%
- Fatigue grade 3-4, No. (Total, all cohorts): 2
- Hand-Food Syndrome grade 1-2, % (Total, all cohorts): 32.6%
- Hand-Food Syndrome grade 1-2, No. (Total, all cohorts): 15
- Hand-Food Syndrome grade 3-4, % (Total, all cohorts): 13%
- Hand-Food Syndrome grade 3-4, No. (Total, all cohorts): 6
- Hemorrhage grade 1-2, % (Total, all cohorts): 21.7%
- Hemorrhage grade 1-2, No. (Total, all cohorts): 10
- Hemorrhage grade 3-4, % (Total, all cohorts): 2.2%
- Hemorrhage grade 3-4, No. (Total, all cohorts): 1
- Hoarseness grade 1-2, % (Total, all cohorts): 8.7%
- Hoarseness grade 1-2, No. (Total, all cohorts): 4
- Hyperbilirubinemia grade 1-2, % (Total, all cohorts): 6.5%
- Hyperbilirubinemia grade 1-2, No. (Total, all cohorts): 3
- Hyperbilirubinemia grade 3-4, % (Total, all cohorts): 2.2%
- Hyperbilirubinemia grade 3-4, No. (Total, all cohorts): 1
- Hypertension grade 1-2, % (Total, all cohorts): 63%
- Hypertension grade 1-2, No. (Total, all cohorts): 29
- Hypertension grade 3-4, % (Total, all cohorts): 6.5%
- Hypertension grade 3-4, No. (Total, all cohorts): 3
- Infection grade 1-2, % (Total, all cohorts): 21.7%
- Infection grade 1-2, No. (Total, all cohorts): 10
- Mucosal ulcers grade 1-2, % (Total, all cohorts): 17.4%
- Mucosal ulcers grade 1-2, No. (Total, all cohorts): 8
- Mucosal ulcers grade 3-4, % (Total, all cohorts): 4.3%
- Mucosal ulcers grade 3-4, No. (Total, all cohorts): 2
- Neutropenia grade 1-2, % (Total, all cohorts): 34.8%
- Neutropenia grade 1-2, No. (Total, all cohorts): 16
- Neutropenia grade 3-4, % (Total, all cohorts): 8.7%
- Neutropenia grade 3-4, No. (Total, all cohorts): 4
- Pain grade 1-2, % (Total, all cohorts): 26.1%
- Pain grade 1-2, No. (Total, all cohorts): 12
- Pain grade 3-4, % (Total, all cohorts): 8.7%
- Pain grade 3-4, No. (Total, all cohorts): 4
- Proteinuria grade 1-2, % (Total, all cohorts): 34.8%
- Proteinuria grade 1-2, No. (Total, all cohorts): 16
- Proteinuria grade 3-4, % (Total, all cohorts): 13%
- Proteinuria grade 3-4, No. (Total, all cohorts): 6
- Rash grade 1-2, % (Total, all cohorts): 6.5%
- Rash grade 1-2, No. (Total, all cohorts): 3
- Thrombocytopenia grade 1-2, % (Total, all cohorts): 26.1%
- Thrombocytopenia grade 1-2, No. (Total, all cohorts): 12
- Thrombocytopenia grade 3-4, % (Total, all cohorts): 2.2%
- Thrombocytopenia grade 3-4, No. (Total, all cohorts): 1
- Transaminase Increased grade 1-2, % (Total, all cohorts): 28.3%
- Transaminase Increased grade 1-2, No. (Total, all cohorts): 13
- Transaminase Increased grade 3-4, % (Total, all cohorts): 8.7%
- Transaminase Increased grade 3-4, No. (Total, all cohorts): 4
- Vomiting grade 1-2, % (Total, all cohorts): 8.7%
- Vomiting grade 1-2, No. (Total, all cohorts): 4
- Vomiting grade 3-4, % (Total, all cohorts): 2.2%
- Vomiting grade 3-4, No. (Total, all cohorts): 1
- hypertension, drug-related AE, all grades (all patients, N = 46): 69.5%
- proteinuria, drug-related AE, all grades (all patients, N = 46): 47.8%
- bleeding, patients (all patients, most at tumor sites): 23.9%
- patients who developed HFS that progressed to grade 3 (in vivo): About 10%
